Measured values from PubChem BioAssay AID2305 (GlaxoSmithKline (GSK), 2010).

System: P. falciparum 3D7 growth, pLDH absorbance
Assay: blood-stage malaria parasite growth potency – strain 3D7, dose response (AID 2305)

Point of comparison: `c1ccc2c(c1)CN(Cc1ccsc1)CC1(CCN(Cc3c[nH]c4cnccc34)CC1)O2`, IC50 1150 nM. Against it:
- CCCc1c(C(=O)Nc2ccc3c(c2)CCN(C2CCC2)CC3)cnn1-c1ccc(Cl)cc1 — within 1.5-fold, 860 nM
- Cc1cc(CNCCCCCCNCc2cccc([N+](=O)[O-])c2)ccc1O — 1.6-fold lower, 720 nM
- Cc1cc(NCCC(=O)Nc2ccccc2)nc(NCCc2cccs2)n1 — within 1.5-fold, 890 nM
- O=C(NCCCNc1ccnc2cc(Cl)ccc12)c1ccccc1F — 3.6-fold lower, 320 nM
- C[C@@H](Oc1cc(-n2cnc3ccc(OCC4CCN(S(C)(=O)=O)CC4)cc32)sc1C(N)=O)c1ccccc1C(F)(F)F — within 1.5-fold, 1020 nM
- CC(=O)Nc1ccc(CN2CCN(C(c3ccc(F)cc3)c3ccc(F)cc3)CC2)cc1 — within 1.5-fold, 830 nM
- COc1ccc(CN2CCC(CN3CC4(OC3=O)c3ccccc3-c3ccccc34)C2)c(O)c1 (stereo not drawn) — 1.9-fold lower, 610 nM
- O=C(Nc1ccc(OC2CCN(Cc3ccc(F)cc3)CC2)c(Cl)c1)c1ccsc1 — 1.6-fold lower, 720 nM
- Cc1[nH]c(C)c(Cc2ccc(Oc3ccc(OC(F)(F)F)cc3)cc2)c(=O)c1Br — 1.7-fold lower, 690 nM
- Cc1cc(C(=O)CN2C(=O)NC3(CCOc4ccccc43)C2=O)c(C)n1Cc1ccc(F)cc1 (stereo not drawn) — within 1.5-fold, 880 nM
- COc1ccc(NC(=O)c2ccc3[nH]c(-c4ccc(Cl)cc4)cc3c2)cc1OCCN(C)C — within 1.5-fold, 810 nM
- O=C(/C=C/c1ccc(Cl)c(Cl)c1)NCCCCCCN1CCCN(C(=O)Nc2cc(F)cc(F)c2)CC1 — 1.6-fold lower, 710 nM
- COc1cc2c(cc1C(F)(F)F)N(C(=O)Nc1cc(-c3ccncc3)cc(-c3cccnc3)c1)CC2 — 1.9-fold lower, 620 nM
- Cc1[nH]c(C)c(-c2cc3ccccc3o2)c(=O)c1Cl — within 1.5-fold, 1720 nM
- Cc1cccc(CCNC(=O)c2cc(Br)cc(N3CCN(c4ccncc4)CC3)c2)c1 — within 1.5-fold, 870 nM
- CO/C(=C\C=C\c1cc2cc(Cl)c(Cl)cc2[nH]1)C(=O)NC1CCN(CCCc2ccccc2)CC1 — within 1.5-fold, 770 nM
- COc1cc(NC(=O)N2CCOC(CCN3CCC4(CCc5ccccc54)CC3)(c3ccc(Cl)c(Cl)c3)C2)cc(OC)c1OC (stereo not drawn) — 7.2-fold lower, 160 nM
- O=C(NC1CCCCC1)N(Cc1cccc(-c2ccc(CNC3CCCC3)cc2)c1)C1CCN(Cc2ccccc2)CC1 — within 1.5-fold, 950 nM
- COc1cc(CCN(C)Cc2ccc(OC)c(OC)c2)ccc1NC(=O)c1cccc2c(=O)c3cccc(F)c3[nH]c12 — 5.8-fold lower, 200 nM
- N#Cc1ccc(-n2cc(C(=O)Nc3ccc4c(c3)CCN(C3CCC3)CC4)c(C(F)(F)F)n2)cc1 — 4-fold lower, 290 nM
- CC1CC(NCCCNc2cc(=O)c3ccccc3[nH]2)c2c1cc(Cl)c(Cl)c2Cl (stereo not drawn) — within 1.5-fold, 840 nM
- N#Cc1ccc(NC(=NCc2ccc(Cl)cc2Cl)Nc2cccc(Cl)c2Cl)c(O)c1 — within 1.5-fold, 1120 nM
- COc1cccc(-c2cc3nc4c(c(NCCCn5ccnc5)n3n2)CCCC4)c1 — 1.7-fold lower, 680 nM
- O=C(Nc1ccc(Cl)cc1)Nc1ccc(-c2cccc(-c3nc4ccc(F)cc4[nH]3)c2)cc1 — 4-fold lower, 290 nM
- O=C(NCCN1CCOCC1)c1ccc(N2CCC(Oc3ccc4ccccc4c3)CC2)nc1 — 1.5-fold lower, 760 nM
- N#Cc1cccc(NC(=O)Nc2cccc(-c3ccc(-c4nc5ccc(C(F)(F)F)cc5[nH]4)cc3)c2)c1 — 4.6-fold lower, 250 nM
- CC(C)CNCc1cccc(-c2cccc(CN(CCN(C)C)C(=O)Nc3ccccc3)c2)c1 — within 1.5-fold, 800 nM
- COc1ccc2nccc([C@@H](O)CN3CCC(NC(=O)/C=C/c4cc([N+](=O)[O-])ccc4OC)CC3)c2c1 — 4.4-fold lower, 260 nM
- CN1CCCC1CCNCc1ccc(-c2ccc(CNCCc3ccccc3)cn2)cc1 (stereo not drawn) — within 1.5-fold, 1110 nM
- CN1CC=C(c2c[nH]c3ccc(C(=O)c4nccs4)cc23)CC1 — 4.8-fold lower, 240 nM
- CNC(=O)C1Cc2c([nH]c3c(C)cccc23)C2(N1)C(=O)Nc1ccc(OC(F)(F)F)cc12 (stereo not drawn) — 2.5-fold lower, 460 nM
- Cc1nc2nc(N)nc(N)c2c(C)c1Cc1ccc(O)cc1 — 4.8-fold lower, 240 nM
- O=S(=O)(c1cc2ccccc2s1)N(CCC(O)(C(F)(F)F)C(F)(F)F)Cc1cccc(O)c1 — 1.5-fold lower, 750 nM
- CCOc1ccc(-c2nonc2NC(=O)CC(C)C)cc1OCC — within 1.5-fold, 980 nM
- Cc1ccc(S(=O)(=O)N2CCCN(C(=O)c3cc(-c4ccccc4)n[nH]3)CC2)cc1 — 14-fold lower, 80 nM
- O=C(Nc1cccc(-c2nn3ccccc3c2-c2ccnc(Nc3ccc(-c4cc[nH]n4)cc3)n2)c1)c1c(F)cccc1F — 6.1-fold lower, 190 nM
- Cc1cc(NCC(C)C)c2[nH]nc(-c3ccccc3)c2n1 — 1.6-fold lower, 740 nM
- COc1cc(Nc2ccnc3cc(-c4ccncc4)ccc23)cc(OC)c1OC — within 1.5-fold, 1080 nM
- Cc1[nH]c2ccccc2c1C=NNc1nc(Nc2ccccc2)nc(Nc2ccccc2)n1 — within 1.5-fold, 930 nM
- O=C(Nc1ccc(OCc2ccccc2)cc1)c1nc2ccccc2nc1Cl — 4.6-fold lower, 250 nM
- CCC(C)NC(=O)CN1CN(c2ccccc2)C2(CCN(C(=O)c3ccc4ccccc4c3)CC2)C1=O (stereo not drawn) — 1.8-fold lower, 630 nM
- Clc1ccc2c(NN=Cc3ccccc3)ccnc2c1 — 1.5-fold lower, 760 nM
- C[C@@H](N=C(Nc1ccc(-c2ccccc2)cc1)Nc1ccc(C#N)cc1O)c1ccc(Br)cc1 — 1.6-fold lower, 700 nM
- O=C(Nc1ccc([N+](=O)[O-])cc1)Nc1nc2ccc(Cl)cc2s1 — within 1.5-fold, 840 nM
- COc1cc(Cc2cnc(N)nc2N)ccc1OCc1ccc(-c2ccccc2C#N)cc1 — within 1.5-fold, 940 nM
- O=C(NCCCCN1CCC(c2ccc3ccccc3c2O)CC1)c1ccc(-c2ccc(Cl)cc2)cc1 — 6.4-fold lower, 180 nM
- Cc1cccc(N2CCN(Cc3cc(Cl)ccc3O)CC2)c1C — within 1.5-fold, 770 nM
